This is an account of results in patent US11433136B2, “Polyacetal polymers, conjugates, particles and uses thereof” (THE GENERAL HOSPITAL CORPORATION, priority 2015, dated 2022).

One data set concerns AK4.4 tumors. The data set can be described thus: Orthotopic AK4.4 pancreatic (PDAC) tumors in lean and obese mice. It is filed as in vivo, mice (FVB). The protocol:
Diet started at six weeks of age, continued for ten weeks (C57BL/6 and FVB), at which time tumors were implanted, and then continued until the end of experiments. In the spontaneous tumor models, diets were administered until tumor collection. Mice genetically deficient for leptin (ob/ob) on a standard chow for seven weeks gained weight compared to age matched WT mice (n=8-10/group for C57Bl/6, FVB and ob/ob, 4-10/group for KPC, 7-21/group for iKRAS). Left bars represent mice fed a low-fat diet, right bars represent mice fed a high fat diet for all groups except C57/B6 on the far right of the graph, in which the right bar represents the ob/ob mice. […] PAN02 and AK4.4 syngeneic tumors were orthotopically implanted in C57BL/6 and FVB mice respectively at ten weeks of diet (lean diet, left bars; and obese diet or ob/ob mice, right bars); ob/ob mice were implanted with PAN02 tumors at seven weeks of age. Tumors were collected 21 days later. Obese animals presented with higher tumor weights than lean counterparts in all models (n=8-10/group). FIG. 7D is representative images of mesenteric peritoneal dissemination in lean and obese mice implanted with PAN02 tumors. Mesenteries collected at the same time as tumors in FIG. 7C. FIG. 7E is a graph showing the quantification of mesenteric peritoneal metastasis in the PAN02 model. FIG. 7F is a graph showing the quantification of retro-peritoneal metastasis in the AK4.4 model. Data are shown as mean±standard error of the mean (SEM). P values were determined by the Student t-test. *, P<0.05; **, P<0.01; ***, P<0.001.
Expression of genes associated with AT-1 pathway activation and fibrosis/desmoplasia is increased in PAN02 (FIG. 10A) and AK4.4 (FIG. 10B) tumors from obese mice (right bars) in comparison to lean mice (left bars). […] Data normalized to lean group. 3-4 samples per group pooled in one single PCR array fibrosis gene set plate. […] Of note, similar to αSMA, the changes of AT1, as well as other desmoplasia related markers, were relatively mild in the lean setting. […] Data are shown as mean±SEM with the exception of FIGS. 10A and 10B. P values were determined by the Student t-test unless otherwise stated. *, P<0.05; **, P<0.01, ***p<0.001.
Quantification of total and lectin-positive vessel area in AK4.4 tumors. Obese mice (right bars) presented with decreased perfusion (n=5-12 tumors/group) compared to lean mice (left bars). […] Obese mice presented with increased expression of the hypoxia marker Hif-1α in tumors. […] Doxorubicin quantified via immunofluorescence (n=4 tumors/group). […] AK4.4 syngeneic tumors were orthotopically implanted at ten weeks of diet; treatments were initiated at day 7 post-implantation and tumors resected at day 19. […] Data in FIGS. 17A, 17C and 17D, are shown as mean±SEM. P values were determined by the Student t-test unless otherwise stated. *, P<0.05.
FIGS. 18A, 18B, 18C, 18D, 18E, 18F, and 18G show the additional effects of AT-1 inhibition on obesity-aggravated desmoplasia, perfusion and drug delivery. […] Scale bar: 30 μm (left panels), 500 μm (right panel). […] FIG. 18E is a western blot showing a decrease in αSMA expression in PAN02 tumors implanted in obese AT1 KO mice compared with obese WT mice (bands are part of a larger WB. Lean control group is depicted in FIG. 18F). […] Data in FIGS. 18D, 18F and 18G are shown as mean±SEM. In FIGS. 18C and 18F, far left bars represent lean mice, middle left bars represent lean mice treated with losartan, middle right bars represent obese mice, and […] bars represent obese mice treated with losartan.

For a further data set, the system named is PDACs. Kind of data set: Effect of losartan on immune cell populations in tumors (model not stated). On the set-up: species or system mice. To be noted: mouse, in vivo. The protocol:
FIGS. 21A, 21B, and 21C show the effect of losartan on the immune tumor microenvironment. […] Error bars represent standard error of the mean. P values were determined by the Student t-test in A. *, P<0.05, **, P<0.01, ***, P<0.001.

A further data set concerns PDAC. To be noted: in vivo; cited from earlier work.
Data set [1] has as its system cardiac and renal fibrosis. To be noted: in vivo; cited from earlier work.
Data set [2] relates to mouse models of Marfan syndrome. To be noted: affected mice; cited from earlier work.
The subject of another data set is Marfan syndrome. To be noted: children; cited from earlier work.

On to `O=c1[nH]cc(F)c(=O)[nH]1` [Example 5-FU, 5-fluorouracil], for which the “response to chemotherapy (tumor growth)” value with AK4.4 tumors (obese vs lean, treatment from day 7, tumors resected day 19) is reported as “less effective in preventing tumor growth in obese animals”.
With `CCCCc1nc(Cl)c(CO)n1Cc1ccc(-c2ccccc2-c2nn[nH]n2)cc1` [losartan], the “tumor αSMA protein expression” value in the data set on AK4.4 tumors (lean and obese) is reported as “reduced tumor αSMA protein expression more dramatically in the obese setting”. Moreover, in the data set with AK4.4 tumors (lean mice), the “mRNA expression of markers of tumor fibrosis/desmoplasia” value was “did not alter these markers in lean mice”. Moreover, the “response to chemotherapy with AT1 blockade” value in the data set on AK4.4 tumors (losartan with 5-FU, lean and obese) is “improved response to chemotherapy in both lean and obese settings but with higher magnitude in obese setting”. In addition, in the data set on AK4.4 tumors (obese but not lean mice), the “chemotherapy delivery to tumors” value is given as “increase chemotherapy delivery” and the tumor perfusion result was “tended to improve perfusion”. Also, in the data set with AK4.4 tumors (obese mice), the “cytokine expression in tumors (multiplex protein)” value was “reduced the expression of multiple cytokines including IL-1”; the “mRNA expression of markers of tumor fibrosis/desmoplasia” value is given as “reverted by losartan”; the “tumor fibrillar collagen (SHG) and collagen-1 expression” value is given as “reduced tumor fibrillar collagen (top panels) as well as collagen-1 expression”. Also, the “expression of AT1 signaling and desmoplasia-related markers (western blotting)” value in the data set with AK4.4 tumors (obese vs lean) is on record as “normalized the obesity-augmented expression”. In the data set on PDACs, the “enrichment for GR(+)F480(−) cells within the CD45 population” value is listed as “tended to decrease the enrichment for GR(+)F480(−) cells” and the “enrichment for T regulatory cells within CD4 cells” value is reported as “tended to decrease the enrichment”. Besides, in the data set on PDAC, the “desmoplasia in PDAC” value was “can reduce desmoplasia in PDAC”; the “vascular perfusion, drug delivery and chemotherapy effectiveness” value was “can enhance vascular perfusion by decompressing vessels, leading to improved drug delivery and chemotherapy effectiveness”. Also, the “incidence of cardiac and renal fibrosis” value in data set [1] was “reduce the incidence of cardiac and renal fibrosis”. In addition, in data set [2], the “blood vessel architecture and aortic aneurysms” value is “striking effects in improving blood vessel architecture and prevented the development of aortic aneurysms”. Also, the “progression of aortic and muscular lesions” value with Marfan syndrome was “can strikingly prevent progression of aortic and muscular lesions”.
